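Assay format: 96-well plates, 48-hour exposure. GI50: concentration for 50% inhibition of growth. TGI: total growth inhibition.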
Legend:
Experiment in all cases: growth of human tumour cells (NCI), 48 h
HCT-116 colon = system: HCT-116 colon
UACC-62 melanoma = system: UACC-62 melanoma
SF-295 CNS = system: SF-295 CNS
ACHN renal = system: ACHN renal
SF-539 CNS = system: SF-539 CNS
786-0 renal = system: 786-0 renal
SK-MEL-28 melanoma = system: SK-MEL-28 melanoma
DU-145 prostate = system: DU-145 prostate
MCF7 breast = system: MCF7 breast
RPMI-8226 leukemia = system: RPMI-8226 leukemia
T-47D breast = system: T-47D breast
SNB-75 CNS = system: SNB-75 CNS
EKVX NSCLC = system: EKVX NSCLC
A549 NSCLC = system: A549 NSCLC
NCI-H226 lung = system: NCI-H226 lung
OVCAR-8 ovarian = system: OVCAR-8 ovarian
OVCAR-4 ovarian = system: OVCAR-4 ovarian
UACC-257 melanoma = system: UACC-257 melanoma
HL-60(TB) leukemia = system: HL-60(TB) leukemia
MOLT-4 leukemia = system: MOLT-4 leukemia
OVCAR-5 ovarian = system: OVCAR-5 ovarian
TK-10 renal = system: TK-10 renal
HOP-62 NSCLC = system: HOP-62 NSCLC
A498 renal = system: A498 renal
COLO 205 colon = system: COLO 205 colon
MDA-MB-231 breast = system: MDA-MB-231 breast
SK-MEL-2 melanoma = system: SK-MEL-2 melanoma
BT-549 breast = system: BT-549 breast
U251 CNS = system: U251 CNS
SK-MEL-5 melanoma = system: SK-MEL-5 melanoma
K-562 leukemia = system: K-562 leukemia
CAKI-1 renal = system: CAKI-1 renal
M14 melanoma = system: M14 melanoma
OVCAR-3 ovarian = system: OVCAR-3 ovarian
IGROV1 ovarian = system: IGROV1 ovarian
SF-268 CNS = system: SF-268 CNS
HS 578T breast = system: HS 578T breast
NCI-H522 lung = system: NCI-H522 lung
KM12 colon = system: KM12 colon
UO-31 renal = system: UO-31 renal
CCRF-CEM leukemia = system: CCRF-CEM leukemia
SK-OV-3 ovarian = system: SK-OV-3 ovarian
HT29 colon = system: HT29 colon
NCI/ADR-RES ovarian = system: NCI/ADR-RES ovarian
LOX IMVI melanoma = system: LOX IMVI melanoma
PC-3 prostate = system: PC-3 prostate
HCC-2998 colon = system: HCC-2998 colon
SW-620 colon = system: SW-620 colon
MDA-MB-435 = system: MDA-MB-435
SR leukemia = system: SR leukemia
HCT-15 colon = system: HCT-15 colon
SN12C renal = system: SN12C renal
HOP-92 NSCLC = system: HOP-92 NSCLC
SNB-19 CNS = system: SNB-19 CNS
RXF 393 renal = system: RXF 393 renal
NCI-H460 lung = system: NCI-H460 lung
NCI-H23 lung = system: NCI-H23 lung

COC(=O)C(NC(=O)c1ccccc1)c1ccc(OC)c(I)c1 (centres undefined)
GI50 (HCT-116 colon): 33.7 µM | TGI (HCT-116 colon): > 100 µM | GI50 (UACC-62 melanoma): 52.9 µM | TGI (UACC-62 melanoma): > 100 µM | GI50 (SF-295 CNS): 66.4 µM | TGI (SF-295 CNS): > 100 µM | GI50 (ACHN renal): 63.8 µM | TGI (ACHN renal): > 100 µM | GI50 (SF-539 CNS): > 100 µM | TGI (SF-539 CNS): > 100 µM | GI50 (786-0 renal): > 100 µM | TGI (786-0 renal): > 100 µM | GI50 (SK-MEL-28 melanoma): 76.4 µM | TGI (SK-MEL-28 melanoma): > 100 µM | GI50 (DU-145 prostate): > 100 µM | TGI (DU-145 prostate): > 100 µM | GI50 (MCF7 breast): 39.5 µM | TGI (MCF7 breast): > 100 µM | GI50 (RPMI-8226 leukemia): 44.2 µM | TGI (RPMI-8226 leukemia): > 100 µM | GI50 (T-47D breast): 36.6 µM | TGI (T-47D breast): > 100 µM | GI50 (SNB-75 CNS): 56.7 µM | TGI (SNB-75 CNS): > 100 µM | GI50 (EKVX NSCLC): 89.1 µM | TGI (EKVX NSCLC): > 100 µM | GI50 (A549 NSCLC): 62.1 µM | TGI (A549 NSCLC): > 100 µM | GI50 (NCI-H226 lung): > 100 µM | TGI (NCI-H226 lung): > 100 µM | GI50 (OVCAR-8 ovarian): > 100 µM | TGI (OVCAR-8 ovarian): > 100 µM | GI50 (OVCAR-4 ovarian): 94.2 µM | TGI (OVCAR-4 ovarian): > 100 µM | GI50 (UACC-257 melanoma): 48.3 µM | TGI (UACC-257 melanoma): > 100 µM | GI50 (HL-60(TB) leukemia): 41.6 µM | TGI (HL-60(TB) leukemia): > 100 µM | GI50 (MOLT-4 leukemia): 48.9 µM | TGI (MOLT-4 leukemia): > 100 µM | GI50 (OVCAR-5 ovarian): > 100 µM | TGI (OVCAR-5 ovarian): > 100 µM | GI50 (TK-10 renal): 38.5 µM | TGI (TK-10 renal): > 100 µM | GI50 (HOP-62 NSCLC): > 100 µM | TGI (HOP-62 NSCLC): > 100 µM | GI50 (A498 renal): > 100 µM | TGI (A498 renal): > 100 µM | GI50 (COLO 205 colon): 80.8 µM | TGI (COLO 205 colon): > 100 µM | GI50 (MDA-MB-231 breast): 27.2 µM | TGI (MDA-MB-231 breast): > 100 µM | GI50 (SK-MEL-2 melanoma): > 100 µM | TGI (SK-MEL-2 melanoma): > 100 µM | GI50 (BT-549 breast): > 100 µM | TGI (BT-549 breast): > 100 µM | GI50 (U251 CNS): 65.6 µM | TGI (U251 CNS): > 100 µM | GI50 (SK-MEL-5 melanoma): 44.2 µM | TGI (SK-MEL-5 melanoma): > 100 µM | GI50 (K-562 leukemia): 35.6 µM | TGI (K-562 leukemia): > 100 µM | GI50 (CAKI-1 renal): 77.6 µM | TGI (CAKI-1 renal): > 100 µM | GI50 (M14 melanoma): 52.3 µM | TGI (M14 melanoma): > 100 µM | GI50 (OVCAR-3 ovarian): 37.4 µM | TGI (OVCAR-3 ovarian): 88.2 µM | GI50 (IGROV1 ovarian): 53.2 µM | TGI (IGROV1 ovarian): > 100 µM | GI50 (SF-268 CNS): > 100 µM | TGI (SF-268 CNS): > 100 µM | GI50 (HS 578T breast): 77.1 µM | TGI (HS 578T breast): > 100 µM | GI50 (NCI-H522 lung): 43.6 µM | TGI (NCI-H522 lung): > 100 µM | GI50 (KM12 colon): > 100 µM | TGI (KM12 colon): > 100 µM | GI50 (UO-31 renal): 76 µM | TGI (UO-31 renal): > 100 µM | GI50 (CCRF-CEM leukemia): 53.8 µM | TGI (CCRF-CEM leukemia): > 100 µM | GI50 (SK-OV-3 ovarian): 78.2 µM | TGI (SK-OV-3 ovarian): > 100 µM | GI50 (HT29 colon): 49 µM | TGI (HT29 colon): > 100 µM | GI50 (NCI/ADR-RES ovarian): 36.4 µM | TGI (NCI/ADR-RES ovarian): > 100 µM | GI50 (LOX IMVI melanoma): 46.9 µM | TGI (LOX IMVI melanoma): > 100 µM | GI50 (PC-3 prostate): 40.1 µM | TGI (PC-3 prostate): > 100 µM | GI50 (HCC-2998 colon): 54.5 µM | TGI (HCC-2998 colon): > 100 µM | GI50 (SW-620 colon): > 100 µM | TGI (SW-620 colon): > 100 µM | GI50 (MDA-MB-435): 39.6 µM | TGI (MDA-MB-435): > 100 µM | GI50 (SR leukemia): 35.2 µM | TGI (SR leukemia): > 100 µM | GI50 (HCT-15 colon): 35.5 µM | TGI (HCT-15 colon): > 100 µM | GI50 (SN12C renal): > 100 µM | TGI (SN12C renal): > 100 µM | GI50 (HOP-92 NSCLC): 58.6 µM | TGI (HOP-92 NSCLC): > 100 µM | GI50 (SNB-19 CNS): > 100 µM | TGI (SNB-19 CNS): > 100 µM | GI50 (RXF 393 renal): > 100 µM | TGI (RXF 393 renal): > 100 µM | GI50 (NCI-H460 lung): 67.6 µM | TGI (NCI-H460 lung): > 100 µM

COc1ccc(NC(=S)Nc2cccc(C)n2)cc1
TGI (HCT-116 colon): > 100 µM | TGI (UACC-62 melanoma): > 100 µM | TGI (SF-295 CNS): > 100 µM | TGI (NCI-H23 lung): > 100 µM | TGI (ACHN renal): > 100 µM | TGI (SF-539 CNS): > 100 µM | TGI (786-0 renal): > 100 µM | TGI (SK-MEL-28 melanoma): > 100 µM | TGI (DU-145 prostate): > 100 µM | TGI (MCF7 breast): > 100 µM | TGI (RPMI-8226 leukemia): > 100 µM | TGI (T-47D breast): > 100 µM | TGI (SNB-75 CNS): > 100 µM | TGI (EKVX NSCLC): > 100 µM | TGI (NCI-H226 lung): > 100 µM | TGI (OVCAR-8 ovarian): > 100 µM | TGI (OVCAR-4 ovarian): > 100 µM | TGI (UACC-257 melanoma): > 100 µM | TGI (HL-60(TB) leukemia): > 100 µM | TGI (MOLT-4 leukemia): > 100 µM | TGI (TK-10 renal): > 100 µM | TGI (HOP-62 NSCLC): 64.3 µM | TGI (A498 renal): > 100 µM | TGI (COLO 205 colon): > 100 µM | TGI (MDA-MB-231 breast): > 100 µM | TGI (SK-MEL-2 melanoma): > 100 µM | TGI (BT-549 breast): > 100 µM | TGI (U251 CNS): > 100 µM | TGI (SK-MEL-5 melanoma): > 100 µM | TGI (K-562 leukemia): > 100 µM | TGI (CAKI-1 renal): > 100 µM | TGI (M14 melanoma): > 100 µM | TGI (IGROV1 ovarian): > 100 µM | TGI (SF-268 CNS): > 100 µM | TGI (HS 578T breast): > 100 µM | TGI (KM12 colon): > 100 µM | TGI (UO-31 renal): > 100 µM | TGI (CCRF-CEM leukemia): > 100 µM | TGI (SK-OV-3 ovarian): > 100 µM | TGI (HT29 colon): > 100 µM | TGI (NCI/ADR-RES ovarian): > 100 µM | TGI (LOX IMVI melanoma): > 100 µM | TGI (PC-3 prostate): > 100 µM | TGI (HCC-2998 colon): > 100 µM | TGI (SW-620 colon): > 100 µM | TGI (MDA-MB-435): > 100 µM | TGI (SR leukemia): > 100 µM | TGI (HCT-15 colon): > 100 µM | TGI (HOP-92 NSCLC): > 100 µM | TGI (SNB-19 CNS): > 100 µM | TGI (RXF 393 renal): > 100 µM | TGI (NCI-H460 lung): > 100 µM
